ChEMBL document CHEMBL1201862, “PubChem BioAssay data set” (2004)
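Cells were grown in 96-well plates and exposed to each compound for 48 hours at five concentrations; endpoints were interpolated linearly between bracketing concentrations, or set to the highest concentration if not reached. GI50: concentration for 50% inhibition of growth.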 Activity calls are given as the source filed them. No stated cut-off is given here; in the data, active = GI50 up to about 1.1 µM and inactive = higher.

Key:
Assay in all cases: NCI tumour cell line growth inhibition, 48 h
[1] = tested on: MDA-MB-435
[2] = tested on: NCI-H226
[3] = tested on: SW-620
[4] = tested on: HOP-62
[5] = tested on: SNB-75
[6] = tested on: SK-MEL-2
[7] = tested on: M14
[8] = tested on: EKVX
[9] = tested on: SF-539
[10] = tested on: NCI-H522
[11] = tested on: MDA-N
[12] = tested on: T47D
[13] = tested on: CAKI-1
[14] = tested on: Hs-578T
[15] = tested on: MCF7
[16] = tested on: HT-29
[17] = tested on: MOLT-4
[18] = tested on: ACHN
[19] = tested on: NCI-H460

Structure (SMILES)	GI50 [1]	GI50 [2]	GI50 [3]	GI50 [4]	GI50 [5]	GI50 [6]	GI50 [7]	GI50 [8]	GI50 [9]	GI50 [10]	GI50 [11]	GI50 [12]	GI50 [13]	GI50 [14]	GI50 [15]	GI50 [16]	GI50 [17]	GI50 [18]	GI50 [19]
CC(C)OC(=O)OCSc1ccccc1/N=C/c1cccc([N+](=O)[O-])c1	> 10 µM (inactive)	> 10 µM (inactive)	> 10 µM (inactive)	> 10 µM (inactive)	> 10 µM (inactive)	> 10 µM (inactive)	> 10 µM (inactive)	> 10 µM (inactive)	> 10 µM (inactive)	> 10 µM (inactive)	> 10 µM (inactive)	> 10 µM (inactive)	> 10 µM (inactive)	> 10 µM (inactive)	> 10 µM (inactive)	> 10 µM (inactive)	> 10 µM (inactive)	> 10 µM (inactive)	> 10 µM (inactive)
CCCCCCCCCCCCCCCCOCC(Cl)COP(=O)(O)OP(=O)(O)OCC1OC(n2cnc3c(N)ncnc32)C(O)C1O (stereo unspecified)	54.7 µM (inactive)	36.7 µM (inactive)	> 100 µM (inactive)	> 100 µM (inactive)	31 µM (inactive)	> 100 µM (inactive)	83.6 µM (inactive)	> 100 µM (inactive)	76 µM (inactive)	> 100 µM (inactive)	61.8 µM (inactive)	84.5 µM (inactive)	> 100 µM (inactive)	32.4 µM (inactive)	> 100 µM (inactive)	> 100 µM (inactive)	> 100 µM (inactive)	> 100 µM (inactive)	52.4 µM (inactive)
CC1c2cc(c3c(c2O)CN([C@@H](C)C2CCCCC2)CO3)C(C)c2cc(c3c(c2O)CN([C@@H](C)C2CCCCC2)CO3)C(C)c2cc(c3c(c2O)CN([C@@H](C)C2CCCCC2)CO3)C(C)c2cc1c1c(c2O)CN([C@@H](C)C2CCCCC2)CO1 (stereo partly specified)	1.8 µM (inactive)	0.979 µM (active)	0.986 µM (active)	1.97 µM (inactive)	1.22 µM (inactive)	2.11 µM (inactive)	2.3 µM (inactive)	1.06 µM (active)	1.77 µM (inactive)	0.607 µM (active)	0.849 µM (active)	1.56 µM (inactive)	1.6 µM (inactive)	1.35 µM (inactive)	1.36 µM (inactive)	0.277 µM (active)	1.34 µM (inactive)	1.47 µM (inactive)	1.28 µM (inactive)
Cc1nc2ccccc2n1CCc1nc2ccccc2[nH]1	> 100 µM (inactive)	31.6 µM (inactive)	> 100 µM (inactive)	> 100 µM (inactive)	> 100 µM (inactive)	> 100 µM (inactive)	> 100 µM (inactive)	> 100 µM (inactive)	> 100 µM (inactive)	> 100 µM (inactive)	> 100 µM (inactive)	> 100 µM (inactive)	> 100 µM (inactive)	> 100 µM (inactive)	> 100 µM (inactive)	> 100 µM (inactive)	> 100 µM (inactive)	> 100 µM (inactive)	> 100 µM (inactive)
CN1CCOC1c1ccccc1O (stereo unspecified)	> 100 µM (inactive)	> 100 µM (inactive)	> 100 µM (inactive)	> 100 µM (inactive)	85.3 µM (inactive)	> 100 µM (inactive)	> 100 µM (inactive)	> 100 µM (inactive)	> 100 µM (inactive)	> 100 µM (inactive)	> 100 µM (inactive)	> 100 µM (inactive)	> 100 µM (inactive)	> 100 µM (inactive)	> 100 µM (inactive)	> 100 µM (inactive)	> 100 µM (inactive)	> 100 µM (inactive)	> 100 µM (inactive)
CCOC(=O)C(NC(C)=O)(Nc1ccc(S(N)(=O)=O)cc1)C(F)(F)F (stereo unspecified)	> 100 µM (inactive)	> 100 µM (inactive)	> 100 µM (inactive)	> 100 µM (inactive)	> 100 µM (inactive)	> 100 µM (inactive)	> 100 µM (inactive)	> 100 µM (inactive)	> 100 µM (inactive)	> 100 µM (inactive)	> 100 µM (inactive)	> 100 µM (inactive)	> 100 µM (inactive)	> 100 µM (inactive)	> 100 µM (inactive)	> 100 µM (inactive)	> 100 µM (inactive)	> 100 µM (inactive)	> 100 µM (inactive)
CC1CNC(c2cccc(-c3nc(-c4cccc(C5=NC(C)CN5)c4)nc(N(C)C)n3)c2)=N1 (stereo unspecified)	1.19 µM (inactive)	1.9 µM (inactive)	0.721 µM (active)	1.08 µM (active)	1.91 µM (inactive)	2.02 µM (inactive)	3.5 µM (inactive)	2.23 µM (inactive)	0.454 µM (active)	0.757 µM (active)	1.52 µM (inactive)	2.5 µM (inactive)	18.1 µM (inactive)	2.74 µM (inactive)	0.78 µM (active)	0.895 µM (active)	0.373 µM (active)	3.12 µM (inactive)	1.94 µM (inactive)
Cc1ccc(-c2cc(-c3ccc(Cl)cc3)nc(/N=C3\C(=O)N(CN4CCOCC4)c4ccccc43)n2)cc1	19 µM (inactive)	35.6 µM (inactive)	17 µM (inactive)	28 µM (inactive)	25.4 µM (inactive)	18.3 µM (inactive)	26.2 µM (inactive)	30.8 µM (inactive)	19.5 µM (inactive)	14.3 µM (inactive)	18.5 µM (inactive)	32.9 µM (inactive)	32 µM (inactive)	22.9 µM (inactive)	19 µM (inactive)	20.1 µM (inactive)	8.69 µM (inactive)	23.3 µM (inactive)	14 µM (inactive)
O=C(O)Cc1ccc(Nc2nc3ccccc3nc2C(=O)O)cc1	> 100 µM (inactive)	> 100 µM (inactive)	> 100 µM (inactive)	> 100 µM (inactive)	> 100 µM (inactive)	> 100 µM (inactive)	> 100 µM (inactive)	> 100 µM (inactive)	> 100 µM (inactive)	> 100 µM (inactive)	> 100 µM (inactive)	> 100 µM (inactive)	> 100 µM (inactive)	> 100 µM (inactive)	> 100 µM (inactive)	> 100 µM (inactive)	> 100 µM (inactive)	> 100 µM (inactive)	> 100 µM (inactive)
COc1ccc(N(c2ccc(C#N)cc2)c2ccc(C#N)cc2)cc1	> 100 µM (inactive)	> 100 µM (inactive)	> 100 µM (inactive)	> 100 µM (inactive)	> 100 µM (inactive)	> 100 µM (inactive)	> 100 µM (inactive)	> 100 µM (inactive)	> 100 µM (inactive)	3.78 µM (inactive)	> 100 µM (inactive)	4.57 µM (inactive)	> 100 µM (inactive)	> 100 µM (inactive)	26 µM (inactive)	9.89 µM (inactive)	5.2 µM (inactive)	> 100 µM (inactive)	> 100 µM (inactive)
C#C[C@]1(O)CC[C@H]2[C@@H]3CCC4=C/C(=N/OCCN(C)C)CC[C@]4(C)[C@H]3CC[C@@]21C	6.7 µM (inactive)	27.3 µM (inactive)	28.1 µM (inactive)	29.9 µM (inactive)	30.1 µM (inactive)	31.7 µM (inactive)	15 µM (inactive)	32.3 µM (inactive)		16.3 µM (inactive)	11.1 µM (inactive)	> 100 µM (inactive)	78 µM (inactive)	26.9 µM (inactive)	25.1 µM (inactive)	6.78 µM (inactive)	32.9 µM (inactive)	54.7 µM (inactive)	21.8 µM (inactive)
COC(=O)CCC1(CCC(=O)OC)CCCCCCC(CCC(=O)OC)(CCC(=O)OC)C(=O)C1=O	> 100 µM (inactive)	> 100 µM (inactive)		> 100 µM (inactive)	49.1 µM (inactive)	> 100 µM (inactive)	74.1 µM (inactive)	> 100 µM (inactive)	> 100 µM (inactive)	> 100 µM (inactive)	> 100 µM (inactive)	20.5 µM (inactive)	> 100 µM (inactive)	> 100 µM (inactive)	> 100 µM (inactive)	60.3 µM (inactive)		> 100 µM (inactive)	93.8 µM (inactive)
NC(=O)NC(=O)C1CCCCC1C(=O)O (stereo unspecified)	> 100 µM (inactive)	> 100 µM (inactive)	> 100 µM (inactive)	> 100 µM (inactive)	> 100 µM (inactive)	> 100 µM (inactive)	> 100 µM (inactive)	> 100 µM (inactive)	> 100 µM (inactive)	> 100 µM (inactive)	> 100 µM (inactive)	> 100 µM (inactive)	> 100 µM (inactive)	> 100 µM (inactive)	> 100 µM (inactive)	> 100 µM (inactive)		> 100 µM (inactive)	> 100 µM (inactive)
CC(C)(CO)N1C(=O)c2ccccc2C1(O)c1ccc(Cl)cc1 (stereo unspecified)	> 100 µM (inactive)	> 100 µM (inactive)	> 100 µM (inactive)	> 100 µM (inactive)	> 100 µM (inactive)	37.8 µM (inactive)	> 100 µM (inactive)	> 100 µM (inactive)		> 100 µM (inactive)	> 100 µM (inactive)	72.3 µM (inactive)	> 100 µM (inactive)	> 100 µM (inactive)	> 100 µM (inactive)	> 100 µM (inactive)	> 100 µM (inactive)	> 100 µM (inactive)	84.9 µM (inactive)
